Test [1] deals with Diet-Induced Obese (DIO) C57BL/6J mice. Kind of test: Glucokinase activator in vivo screen, blood glucose in DIO mice. Particulars: Mus musculus; 2 hours post 25 mg/kg oral dose in DIO mice, vs control; read-out: % gluc @ 2 H (% glucose lowering vs control). The protocol: Glucokinase Activator in vivo Screen Protocol in Lean and Diet Induced Obese Mice: Lean or Diet-Induced Obese (DIO) C57BL/6J mice were orally dosed via gavage with Glucokinase (GK) activator (50 mg/kg body weight for lean mice, 25 mg/kg body weight for DIO mice) following a two hour fasting period. Blood glucose determinations were made four times during the six hour post-dose study period.
C57Bl/6J mice were obtained from Jackson Laboratory (Bar Harbor, Me.) and were maintained in a light-dark cycle with lights on from 0600-1800 hr. For studies in lean mice, the mice were received at age six weeks and given ad libitum access to control diet (LabDiet 5001 chow, PMI Nutrition, Brentwood, Mo.), and were at least age 11 weeks at the time of study. For studies in the DIO model, the mice were received at age five weeks and given ad libitum access to Bio-Serv F3282 High Fat Diet (Frenchtown, N.J.), and were at least age 16 weeks at the time of study. The experiments were conducted during the light phase of the light-dark cycle. Mice (n=6) are weighed and fasted for a two hour period prior to oral treatment. GK activators are formulated in Gelucire vehicle (Ethanol:Gelucire44/14:PEG400q.s. 4:66:30 v/w/v. For studies in lean mice, the mice were dosed orally with 5.0 μL per gram of body weight with 5 ml/kg×10.0 mg/ml formulation to equal a 50 mg/kg dose. For studies in DIO mice, the mice were dosed orally with 5.0 μL per gram of body weight with […] formulation to equal a 25 mg/kg dose. Immediately prior to dosing, a pre-dose (time zero) blood glucose reading was acquired by snipping off a small portion of the animal's tail (˜1 mm) and collecting 15 μL blood into a heparinized capillary tube for analysis. Following GK activator administration, additional blood glucose readings were taken at 2, 4 and 6 hours post dose from the same tail wound. Results were interpreted by comparing the mean blood glucose values of six vehicle treated mice with six GK activator treated mice over the six hour study duration.

The target in test [2] is T1, Recombinant human liver GK1 (GST-GK) (Homo sapiens, UniProt P35557).
T1 construct: made in house; host or cells: E. coli
T1 sequence (P35557 1-466 isoform P35557-2): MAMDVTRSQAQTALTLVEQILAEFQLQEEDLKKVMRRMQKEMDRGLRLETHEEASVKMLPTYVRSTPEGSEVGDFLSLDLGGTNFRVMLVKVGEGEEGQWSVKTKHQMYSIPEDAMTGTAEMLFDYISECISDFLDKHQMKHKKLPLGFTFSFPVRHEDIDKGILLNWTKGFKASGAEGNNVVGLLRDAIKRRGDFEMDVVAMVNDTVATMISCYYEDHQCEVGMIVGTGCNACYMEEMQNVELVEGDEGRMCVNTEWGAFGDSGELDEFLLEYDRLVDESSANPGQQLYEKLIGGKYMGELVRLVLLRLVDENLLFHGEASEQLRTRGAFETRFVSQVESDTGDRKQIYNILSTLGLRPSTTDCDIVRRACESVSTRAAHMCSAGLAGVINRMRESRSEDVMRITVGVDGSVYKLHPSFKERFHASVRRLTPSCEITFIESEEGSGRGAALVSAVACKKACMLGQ
Kind of test: Glucokinase in vitro assay (G6PDH-coupled, NADH at OD340). Format: biochemical. To be noted: 25° C., 5 mM D-glucose, 10% DMSO, GST-GK. The protocol:
Glucokinase In Vitro Assay Protocol: Glucokinase (GK) was assayed by coupling the production of glucose-6-phosphate to the generation of NADH with glucose-6-phosphate dehydrogenase (G6PDH, 0.75-1 kunits/mg; Boehringer Mannheim, Indianapolis, Ind.) from Leuconostoc mesenteroides as the coupling enzyme (Scheme 2).
Recombinant human liver GK1 was expressed in E. coli as a glutathione S-transferase fusion protein (GST-GK) [Liang et al, 1995] and was purified by chromatography over a glutathione-Sepharose 4B affinity column using the procedure provided by the manufacturer (Amersham Pharmacia Biotech, Piscataway, N.J.).
The assay was conducted at 25° C. in a flat bottom 96-well tissue culture plate from Costar (Cambridge, Mass.) with a final incubation volume of 120 μL. The incubation reaction contained the following: 25 mM Hepes buffer (pH 7.1), 25 mM KCl, 5 mM D-glucose, 1 mM ATP, 1.8 mM NAD, 2 mM MgCl2, 1 μM sorbitol-6-phosphate, 1 mM dithiothreitol, test drug or 10% DMSO, 1.8 unit/ml G6PDH, and GK (see below). All organic reagents were >98% pure and were from Boehringer Mannheim with the exceptions of D-glucose and Hepes which were from Sigma Chemical Co, St Louis, Mo. Test compounds were dissolved in DMSO and were added to the incubation reaction minus GST-GK in a volume of 12 μL to yield a final DMSO concentration of 10%. This mix was pre-incubated in the temperature controlled chamber of a SPECTRAmax 250 microplate spectrophotometer (Molecular Devices Corporation, Sunnyvale, Calif.) for 10 minutes to allow temperature equilibrium and then the reaction was started by the addition of 20 μL GST-GK.
After addition of enzyme, the increase in optical density (OD) at 340 nm was monitored over a 10 minute incubation period as a measure of GK activity. Sufficient GST-GK was added to produce an increase in OD340 of 0.08 to 0.1 units over the 10 minute incubation period in wells containing 10% DMSO but no test compound. Preliminary experiments established that the GK reaction was linear over this period of time even in the presence of activators that produced a 5-fold increase in GK activity. The GK activity in control wells was compared with the activity in wells containing test GK activators, and the concentration of activator that produced a 50% increase in the activity of GK, i.e., the SC1.5, was calculated.

Turning to `COCCn1ccc(NC(=O)[C@H](CC2CCCC2)c2cccc(C(F)(F)F)c2)n1` [Example 84, 3-Cyclopentyl-N-[1-(2-methoxy-ethyl)-1H-pyrazol-3-yl]-2(R)-(3-trifluoromethyl-phenyl)-propionamide], the change in vivo at 25 mg/kg in test [1] was -24.5%.

Regarding `O=C(Nc1ccn(CCCO)n1)[C@H](CC1CCCC1)c1cccc(C(F)(F)F)c1` [Example 85, 3-Cyclopentyl-N-[1-(3-hydroxy-propyl)-1H-pyrazol-3-yl]-2(R)-(3-trifluoromethyl-phenyl)-propionamide], the “SC1.5 (concentration of activator that produced a 50% increase in the activity of GK)” value in test [2] turned out to be 0.779 µM. In test [1], the change in vivo at 25 mg/kg was -20.5%.

These data come from patent publication US7935699B2, “Pyrazole glucokinase activators” (Hoffmann-La Roche Inc., priority 2006, dated 2011).
